US9340521B2, “Method for dual inhibition of SGLT1 and SGLT2 using diphenylmethane derivatives” (GREEN CROSS CORPORATION, priority 2013, dated 2016)

Assays:
[1] = target: Human SGLT2 (hSGLT2) (Homo sapiens (Human), UniProt P31639); assay: Inhibitory effects on human SGLT2 activities (14C-AMG uptake, sodium-dependent glucose transport assay); type: cell-based; conditions: hSGLT2-expressing CHO cells, 37° C. for 2 h, single determinations
Text: Test 1: Cloning and Cell Line Construction for Human SGLT2
Human SGLT2 (hSGLT2) gene was amplified by PCR from cDNA-Human Adult Normal Tissue Kidney (Invitrogen). The hSGLT2 sequence was cloned into pcDNA3.1(+) for mammalian expression and stably transfected into chinese hamster ovary (CHO) cells. SGLT2-expressing clones were selected based on resistance to G418 antibiotic (Geneticin) and activity in the ^14C-α-methyl-D-glucopyranoside (^14C-AMG) uptake assay.
Test 2: Inhibitory Effects on Human SGLT2 Activities
(§1) For sodium-dependent glucose transport assay, cells expressing hSGLT2 were seeded into a 96-well culture plate at a density of 5×10^4 cells/well in RPMI medium 1640 containing 10% fetal bovine serum. The cells were used 1 day after plating. They were incubated in pretreatment buffer (10 mM HEPES, 5 mM Tris, 140 mM choline chloride, 2 mM KCl, 1 mM CaCl2, and 1 mM MgCl2, pH 7.4) at 37° C. for 10 min. They were then incubated in uptake buffer (10 mM HEPES, 5 mM Tris, 140 mM NaCl, 2 mM KCl, 1 mM CaCl2, 1 mM MgCl2, and 1 mM ^14C-nonlabeled AMG pH 7.4) containing ^14C-labeled AMG (8 μM) and the inventive compound or dimethyl sulfoxide (DMSO) vehicle at 37° C. for 2 h. Cells were washed twice with washing buffer (pretreatment buffer containing 10 mM AMG at room temperature) and then the radioactivity was measured using a liquid scintillation counter. IC50 was determined by nonlinear regression analysis using GraphPad PRISM [Katsuno, K. et al. J. Pharmacol. Exp. Ther. 2007, 320, 323-330; Han, S. et al. Diabetes, 2008, 57, 1723-1729].

[2] = target: Human SGLT1 (hSGLT1) (Homo sapiens (Human), UniProt P13866); assay: Inhibitory effects on human SGLT1 activities (14C-AMG uptake, sodium-dependent glucose transport assay); type: cell-based; conditions: 37° C. for 2 h, single determinations
Human SGLT1 (hSGLT1), sequence (P13866 whole entry): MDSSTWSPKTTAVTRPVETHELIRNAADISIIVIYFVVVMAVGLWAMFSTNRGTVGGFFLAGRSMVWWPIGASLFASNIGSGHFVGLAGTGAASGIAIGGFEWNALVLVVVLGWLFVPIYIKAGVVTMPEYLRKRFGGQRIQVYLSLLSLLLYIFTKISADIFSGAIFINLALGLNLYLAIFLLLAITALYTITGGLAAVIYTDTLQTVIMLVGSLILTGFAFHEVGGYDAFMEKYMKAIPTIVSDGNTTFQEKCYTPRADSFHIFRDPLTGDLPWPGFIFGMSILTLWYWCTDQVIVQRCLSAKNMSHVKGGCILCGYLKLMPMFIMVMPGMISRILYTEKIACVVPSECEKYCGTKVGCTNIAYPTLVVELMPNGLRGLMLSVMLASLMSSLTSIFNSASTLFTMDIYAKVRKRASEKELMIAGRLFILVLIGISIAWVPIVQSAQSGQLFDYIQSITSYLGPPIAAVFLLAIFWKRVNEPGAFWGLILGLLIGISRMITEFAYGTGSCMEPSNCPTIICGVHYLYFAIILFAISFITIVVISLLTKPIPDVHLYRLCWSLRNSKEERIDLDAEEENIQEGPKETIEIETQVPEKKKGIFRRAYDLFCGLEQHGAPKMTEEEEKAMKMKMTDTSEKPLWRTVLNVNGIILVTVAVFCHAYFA
Experimental: Test 3: Inhibitory Effects on Human SGLT1 Activities
as §1, with “^14C-labeled” for “^14C-labeled AMG”, “inhibitor” for “the inventive compound”, “PRISM.” for “PRISM [Katsuno, K. et al. J. Pharmacol. Exp. Ther. 2007, 320, 323-330; Han, S. et al. Diabetes, 2008, 57, 1723-1729].”

Human SGLT2 (hSGLT2), sequence (P31639 whole entry): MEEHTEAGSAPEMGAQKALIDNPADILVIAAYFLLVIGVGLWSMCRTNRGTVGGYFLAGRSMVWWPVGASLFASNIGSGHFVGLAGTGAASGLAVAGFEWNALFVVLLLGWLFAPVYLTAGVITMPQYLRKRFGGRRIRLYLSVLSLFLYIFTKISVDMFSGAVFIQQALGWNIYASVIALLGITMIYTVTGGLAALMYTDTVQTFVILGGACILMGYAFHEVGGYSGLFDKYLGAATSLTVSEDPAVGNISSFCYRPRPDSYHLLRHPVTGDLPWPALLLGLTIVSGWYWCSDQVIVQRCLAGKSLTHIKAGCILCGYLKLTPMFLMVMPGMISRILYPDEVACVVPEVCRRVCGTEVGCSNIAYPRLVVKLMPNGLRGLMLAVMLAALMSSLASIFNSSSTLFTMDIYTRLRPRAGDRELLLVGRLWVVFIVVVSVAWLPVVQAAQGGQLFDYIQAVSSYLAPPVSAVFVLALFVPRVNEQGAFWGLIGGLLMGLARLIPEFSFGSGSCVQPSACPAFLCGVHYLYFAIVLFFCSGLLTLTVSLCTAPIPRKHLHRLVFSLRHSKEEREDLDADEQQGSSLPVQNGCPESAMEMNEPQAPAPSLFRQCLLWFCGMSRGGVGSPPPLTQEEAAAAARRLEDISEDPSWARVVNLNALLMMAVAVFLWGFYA

Structure (SMILES)	IC50 [1] [nM]	IC50 [2] [nM]
CCc1ccc(Cc2cc([C@@H]3O[C@H](CO)[C@@H](O)[C@H](O)[C@H]3O)c3c(c2Cl)CCCO3)cc1 [Compound E011, (2S,3R,4R,5S,6R)-2-(5-Chloro-6-(4-ethylbenzyl)chroman-8-yl)-6-(hydroxymethyl)tetrahydro-2H-pyran-3,4,5-triol]	0.85	27
COc1ccc(Cc2cc([C@@H]3O[C@H](CO)[C@@H](O)[C@H](O)[C@H]3O)c3c(c2C)CCC3)cc1 [Compound E005, (2R,3S,4R,5R,6S)-2-(Hydroxymethyl)-6-(6-(4-methoxybenzyl)-7-methyl-2,3-dihydro-1H-inden-4-yl)tetrahydro-2H-pyran-3,4,5-triol]	0.79	26.8
CCc1ccc(Cc2cc([C@@H]3O[C@H](CO)[C@@H](O)[C@H](O)[C@H]3O)c3c(c2Cl)OCCO3)cc1 [Compound E016, (2S,3R,4R,5S,6R)-2-(8-Chloro-7-(4-ethylbenzyl)-2,3-dihydrobenzo[b][1,4]dioxin-5-yl)-6-(hydroxymethyl)tetrahydro-2H-pyran-3,4,5-triol]	0.92	83
CCc1ccc(Cc2cc([C@@H]3O[C@H](CO)[C@@H](O)[C@H](O)[C@H]3O)c3c(c2Cl)CC(C)S3)cc1 (stereo partly drawn) [Compound E019, (2S,3R,4R,5S,6R)-2-(4-Chloro-5-(4-ethylbenzyl)-2-methyl-2,3-dihydrobenzo[b]thiophen-7-yl)-6-(hydroxymethyl)tetrahydro-2H-pyran-3,4,5-triol]	0.98	111
COc1ccc(Cc2cc([C@@H]3O[C@H](CO)[C@@H](O)[C@H](O)[C@H]3O)c3c(c2Cl)CCS3)cc1 [Compound E030, (2S,3R,4R,5S,6R)-2-(4-Chloro-5-(4-methoxybenzyl)-2,3-dihydrobenzo[b]thiophen-7-yl)-6-(hydroxymethyl)tetrahydro-2H-pyran-3,4,5-triol]	2.3	171
CCOc1ccc(Cc2cc([C@@H]3O[C@H](CO)[C@@H](O)[C@H](O)[C@H]3O)c3c(c2C)CCC3)cc1 [Compound E007, (2S,3R,4R,5S,6R)-2-(6-(4-Ethoxybenzyl)-7-methyl-2,3-dihydro-1H-inden-4-yl)-6-(hydroxymethyl)tetrahydro-2H-pyran-3,4,5-triol]		160
OC[C@H]1O[C@@H](c2cc(Cc3ccc(C4CC4)cc3)c(Cl)c3c2OCC3)[C@H](O)[C@@H](O)[C@@H]1O [Compound E017, (2S,3R,4R,5S,6R)-2-(4-Chloro-5-(4-cyclopropylbenzyl)-2,3-dihydrobenzofuran-7-yl)-6-(hydroxymethyl)tetrahydro-2H-pyran-3,4,5-triol]	1.1	52.2
COc1ccc(Cc2cc([C@@H]3O[C@H](CO)[C@@H](O)[C@H](O)[C@H]3O)c3c(c2Br)CCC3)cc1 [Compound E001, (2S,3R,4R,5S,6R)-2-(7-Bromo-6-(4-methoxybenzyl)-2,3-dihydro-1H-inden-4-yl)-6-(hydroxymethyl)tetrahydro-2H-pyran-3,4,5-triol]	0.44	15.2
COc1ccc(Cc2cc([C@@H]3O[C@H](CO)[C@@H](O)[C@H](O)[C@H]3O)c3c(c2Cl)OCCO3)cc1 [Compound E015, (2S,3R,4R,5S,6R)-2-(8-Chloro-7-(4-methoxybenzyl)-2,3-dihydrobenzo[b][1,4]dioxin-5-yl)-6-(hydroxymethyl)tetrahydro-2H-pyran-3,4,5-triol]		34

Second part, the compound after the results:

IC50 [1] [nM]	IC50 [2] [nM]	Structure (SMILES)
0.8	50.3	CSc1ccc(Cc2cc([C@@H]3O[C@H](CO)[C@@H](O)[C@H](O)[C@H]3O)c3c(c2Cl)OCO3)cc1 [Compound E049, (2S,3R,4R,5S,6R)-2-(7-Chloro-6-(4-(methylthio)benzyl)benzo[d][1,3]dioxol-4-yl)-6-(hydroxymethyl)tetrahydro-2H-pyran-3,4,5-triol]
0.86	10.5	COc1ccc(Cc2cc([C@@H]3O[C@H](CO)[C@@H](O)[C@H](O)[C@H]3O)c3c(c2C)CCCC3)cc1 [Compound E037, (2R,3S,4R,5R,6S)-2-(Hydroxymethyl)-6-(3-(4-methoxybenzyl)-4-methyl-5,6,7,8-tetrahydronaphthalen-1-yl)tetrahydro-2H-pyran-3,4,5-triol]
0.87	17.1	CCOc1ccc(Cc2cc([C@@H]3O[C@H](CO)[C@@H](O)[C@H](O)[C@H]3O)c3c(c2Br)CCCC3)cc1 [Compound E058, (2S,3R,4R,5S,6R)-2-(4-Bromo-3-(4-ethoxybenzyl)-5,6,7,8-tetrahydronaphthalen-1-yl)-6-(hydroxymethyl)tetrahydro-2H-pyran-3,4,5-triol]
1.1	95.1	CCOc1ccc(Cc2cc([C@@H]3O[C@H](CO)[C@@H](O)[C@H](O)[C@H]3O)c3c(c2Cl)SCC3)cc1 [Compound E059, (2S,3R,4R,5S,6R)-2-(7-Chloro-6-(4-ethoxybenzyl)-2,3-dihydrobenzo[b]thiophen-4-yl)-6-(hydroxymethyl)tetrahydro-2H-pyran-3,4,5-triol]
0.86	11	CCc1ccc(Cc2cc([C@@H]3O[C@H](CO)[C@@H](O)[C@H](O)[C@H]3O)c3c(c2Br)CCCC3)cc1 [Compound E057, (2S,3R,4R,5S,6R)-2-(4-Bromo-3-(4-ethylbenzyl)-5,6,7,8-tetrahydronaphthalen-1-yl)-6-(hydroxymethyl)tetrahydro-2H-pyran-3,4,5-triol]
1.1	163	OC[C@H]1O[C@@H](c2cc(Cc3ccc(C4CCC4)cc3)c(Cl)c3c2OCCC3)[C@H](O)[C@@H](O)[C@@H]1O [Compound E062, (2S,3R,4R,5S,6R)-2-(5-Chloro-6-(4-cyclobutylbenzyl)chroman-8-yl)-6-(hydroxymethyl)tetrahydro-2H-pyran-3,4,5-triol]
1.4	148	OC[C@H]1O[C@@H](c2cc(Cc3cc4ccccc4s3)c(Cl)c3c2CCO3)[C@H](O)[C@@H](O)[C@@H]1O [Compound E055, (2S,3R,4R,5S,6R)-2-(6-(Benzo[b]thiophen-2-ylmethyl)-7-chloro-2,3-dihydrobenzofuran-4-yl)-6-(hydroxymethyl)tetrahydro-2H-pyran-3,4,5-triol]
2	196	CCOc1ccc(Cc2cc([C@@H]3O[C@H](CO)[C@@H](O)[C@H](O)[C@H]3O)c3c(c2Cl)C(C)CO3)cc1 (stereo partly drawn) [Compound E031, (2S,3R,4R,5S,6R)-2-(4-Chloro-5-(4-ethoxybenzyl)-3-methyl-2,3-dihydrobenzofuran-7-yl)-6-(hydroxymethyl)-tetrahydro-2H-pyran-3,4,5-triol]
1.5	41	OC[C@H]1O[C@@H](c2cc(Cc3cc4ccccc4s3)c(Cl)c3c2OCO3)[C@H](O)[C@@H](O)[C@@H]1O [Compound E053, (2S,3R,4R,5S,6R)-2-(6-(Benzo[b]thiophen-2-ylmethyl)-7-chlorobenzo[d][1,3]dioxol-4-yl)-6-(hydroxymethyl)tetrahydro-2H-pyran-3,4,5-triol]
0.49	62.4	CCOc1ccc(Cc2cc([C@@H]3O[C@H](SC)[C@@H](O)[C@H](O)[C@H]3O)c3c(c2Cl)OCO3)cc1 [Compound E051, (2S,3R,4R,5S,6R)-2-(7-Chloro-6-(4-ethoxybenzyl)benzo[d][1,3]dioxol-4-yl)-6-(methylthio)tetrahydro-2H-pyran-3,4,5-triol]
0.85	23.2	CSc1ccc(Cc2cc([C@@H]3O[C@H](CO)[C@@H](O)[C@H](O)[C@H]3O)c3c(c2Cl)OCCO3)cc1 [Compound E050, (2S,3R,4R,5S,6R)-2-(8-Chloro-7-(4-(methylthio)benzyl)-2,3-dihydrobenzo[b][1,4]dioxin-5-yl)-6-(hydroxymethyl)tetrahydro-2H-pyran-3,4,5-triol]
0.67	40.9	OC[C@H]1O[C@@H](c2cc(Cc3ccc(C4CC4)cc3)c(Cl)c3c2CCS3)[C@H](O)[C@@H](O)[C@@H]1O [Compound E060, (2S,3R,4R,5S,6R)-2-(7-Chloro-6-(4-cyclopropylbenzyl)-2,3-dihydrobenzo[b]thiophen-4-yl)-6-(hydroxymethyl)tetrahydro-2H-pyran-3,4,5-triol]
